# In ChEMBL document CHEMBL5653615 (J Biol Chem, 2013):
# Assays:
# [1] = target: Aurora kinase B (Homo sapiens) (UniProt Q96GD4); experiment: Inhibition of human Aurora B at 1.82 nM by HotSpot assay relative to control
# [2] = target: T1, cGMP-dependent protein kinase 2 (Homo sapiens) (UniProt Q13237); experiment: Inhibition of human PRKG2 at 1.82 nM by HotSpot assay relative to control
# T1 sequence (whole entry): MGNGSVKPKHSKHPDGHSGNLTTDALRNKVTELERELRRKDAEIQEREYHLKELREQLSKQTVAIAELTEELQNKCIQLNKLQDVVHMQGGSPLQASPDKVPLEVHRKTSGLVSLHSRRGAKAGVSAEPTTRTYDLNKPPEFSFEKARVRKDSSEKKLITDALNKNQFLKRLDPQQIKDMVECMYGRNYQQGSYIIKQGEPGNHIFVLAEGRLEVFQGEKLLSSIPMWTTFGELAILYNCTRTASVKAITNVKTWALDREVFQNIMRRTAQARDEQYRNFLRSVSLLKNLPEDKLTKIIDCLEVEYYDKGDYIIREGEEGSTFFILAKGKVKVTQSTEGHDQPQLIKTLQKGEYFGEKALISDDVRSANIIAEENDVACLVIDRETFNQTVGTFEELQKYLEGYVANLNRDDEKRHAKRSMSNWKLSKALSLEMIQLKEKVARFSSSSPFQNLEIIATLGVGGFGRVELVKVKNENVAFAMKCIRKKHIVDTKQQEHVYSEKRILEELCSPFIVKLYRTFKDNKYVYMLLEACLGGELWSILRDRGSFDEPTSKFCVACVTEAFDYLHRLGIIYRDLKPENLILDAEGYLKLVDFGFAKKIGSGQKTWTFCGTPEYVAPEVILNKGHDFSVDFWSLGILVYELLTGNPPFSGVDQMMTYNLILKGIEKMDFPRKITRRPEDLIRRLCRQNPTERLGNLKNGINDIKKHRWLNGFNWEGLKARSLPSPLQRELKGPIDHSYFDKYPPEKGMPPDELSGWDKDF
# [3] = target: T2, Protein kinase C iota type (Homo sapiens) (UniProt P41743); experiment: Inhibition of human PKCiota at 1.82 nM by HotSpot assay relative to control
# T2 sequence (whole entry): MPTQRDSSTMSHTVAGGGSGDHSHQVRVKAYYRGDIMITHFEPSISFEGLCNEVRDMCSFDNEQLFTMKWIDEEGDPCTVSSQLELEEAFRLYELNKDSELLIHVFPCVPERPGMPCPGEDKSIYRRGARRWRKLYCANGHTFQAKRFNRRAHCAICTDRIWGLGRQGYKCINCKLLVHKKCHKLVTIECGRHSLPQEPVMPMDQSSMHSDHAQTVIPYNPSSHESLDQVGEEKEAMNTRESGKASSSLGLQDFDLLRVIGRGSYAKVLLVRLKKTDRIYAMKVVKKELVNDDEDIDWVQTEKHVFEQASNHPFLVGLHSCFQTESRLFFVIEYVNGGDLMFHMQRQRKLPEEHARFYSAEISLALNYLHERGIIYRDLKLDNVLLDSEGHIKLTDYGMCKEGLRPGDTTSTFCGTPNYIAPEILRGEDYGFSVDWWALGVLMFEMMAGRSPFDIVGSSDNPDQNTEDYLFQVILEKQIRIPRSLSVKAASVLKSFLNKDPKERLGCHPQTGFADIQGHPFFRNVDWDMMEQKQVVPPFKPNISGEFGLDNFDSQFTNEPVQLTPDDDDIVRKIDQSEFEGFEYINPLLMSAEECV
# [4] = target: MAP kinase-interacting serine/threonine-protein kinase 1 (Homo sapiens) (UniProt Q9BUB5); experiment: Inhibition of human MNK1 at 1.82 nM by HotSpot assay relative to control
# MAP kinase-interacting serine/threonine-protein kinase 1 (Homo sapiens), sequence (Q9BUB5 whole entry, looked up): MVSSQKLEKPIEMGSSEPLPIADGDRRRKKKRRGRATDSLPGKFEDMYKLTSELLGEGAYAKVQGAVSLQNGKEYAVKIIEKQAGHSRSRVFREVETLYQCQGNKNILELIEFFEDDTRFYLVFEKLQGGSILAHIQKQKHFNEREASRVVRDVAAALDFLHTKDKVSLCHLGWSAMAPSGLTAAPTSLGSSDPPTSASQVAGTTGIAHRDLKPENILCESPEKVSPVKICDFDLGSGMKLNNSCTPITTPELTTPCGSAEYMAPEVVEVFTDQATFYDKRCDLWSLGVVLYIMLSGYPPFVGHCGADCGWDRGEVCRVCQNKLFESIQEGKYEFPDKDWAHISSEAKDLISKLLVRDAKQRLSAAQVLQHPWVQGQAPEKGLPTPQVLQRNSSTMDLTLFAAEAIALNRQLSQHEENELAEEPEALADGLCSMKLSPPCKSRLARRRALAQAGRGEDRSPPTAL
# [5] = target: T3, Mitogen-activated protein kinase kinase kinase 2 (Homo sapiens) (UniProt Q9Y2U5); experiment: Inhibition of human MEKK2 at 18.6 nM by HotSpot assay relative to control
# T3 sequence (whole entry): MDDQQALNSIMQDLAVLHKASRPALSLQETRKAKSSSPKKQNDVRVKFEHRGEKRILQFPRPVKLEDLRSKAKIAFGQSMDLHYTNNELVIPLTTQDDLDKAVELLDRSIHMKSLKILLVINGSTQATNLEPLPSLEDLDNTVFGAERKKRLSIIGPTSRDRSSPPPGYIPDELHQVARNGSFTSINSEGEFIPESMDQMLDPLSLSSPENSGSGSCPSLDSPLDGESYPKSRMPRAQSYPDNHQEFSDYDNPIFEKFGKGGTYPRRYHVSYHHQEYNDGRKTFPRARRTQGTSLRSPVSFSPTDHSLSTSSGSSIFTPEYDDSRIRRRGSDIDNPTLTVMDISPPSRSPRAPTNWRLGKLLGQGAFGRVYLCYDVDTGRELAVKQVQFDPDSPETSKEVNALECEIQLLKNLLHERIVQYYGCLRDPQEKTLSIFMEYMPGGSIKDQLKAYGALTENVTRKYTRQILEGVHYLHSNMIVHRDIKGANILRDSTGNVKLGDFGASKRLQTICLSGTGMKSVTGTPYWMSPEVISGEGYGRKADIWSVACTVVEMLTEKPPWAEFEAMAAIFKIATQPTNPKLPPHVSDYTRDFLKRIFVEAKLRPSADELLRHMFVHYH
# [6] = target: T4, Rhodopsin kinase GRK7 (Homo sapiens) (UniProt Q8WTQ7); experiment: Inhibition of human GRK7 at 18.6 nM by HotSpot assay relative to control
# T4 sequence (whole entry): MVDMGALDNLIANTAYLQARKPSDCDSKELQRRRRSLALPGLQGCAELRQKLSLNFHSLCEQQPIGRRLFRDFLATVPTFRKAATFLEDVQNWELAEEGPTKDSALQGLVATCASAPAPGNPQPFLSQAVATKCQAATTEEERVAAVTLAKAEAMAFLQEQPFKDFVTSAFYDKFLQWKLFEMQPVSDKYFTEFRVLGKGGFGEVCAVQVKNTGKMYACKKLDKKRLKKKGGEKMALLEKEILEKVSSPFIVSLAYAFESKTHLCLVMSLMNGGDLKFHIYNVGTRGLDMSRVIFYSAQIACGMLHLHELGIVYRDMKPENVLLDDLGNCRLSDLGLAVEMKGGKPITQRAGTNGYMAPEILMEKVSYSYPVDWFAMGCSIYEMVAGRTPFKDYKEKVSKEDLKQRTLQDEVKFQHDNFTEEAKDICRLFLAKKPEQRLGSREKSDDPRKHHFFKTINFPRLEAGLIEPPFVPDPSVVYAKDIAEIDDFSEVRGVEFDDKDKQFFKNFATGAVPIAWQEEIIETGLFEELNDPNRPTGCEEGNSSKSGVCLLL
# [7] = target: Leucine-rich repeat serine/threonine-protein kinase 2 (Homo sapiens) (UniProt Q5S007); experiment: Inhibition of human LRRK2 at 18.6 nM by HotSpot assay relative to control
# Leucine-rich repeat serine/threonine-protein kinase 2 (Homo sapiens), sequence (Q5S007 whole entry): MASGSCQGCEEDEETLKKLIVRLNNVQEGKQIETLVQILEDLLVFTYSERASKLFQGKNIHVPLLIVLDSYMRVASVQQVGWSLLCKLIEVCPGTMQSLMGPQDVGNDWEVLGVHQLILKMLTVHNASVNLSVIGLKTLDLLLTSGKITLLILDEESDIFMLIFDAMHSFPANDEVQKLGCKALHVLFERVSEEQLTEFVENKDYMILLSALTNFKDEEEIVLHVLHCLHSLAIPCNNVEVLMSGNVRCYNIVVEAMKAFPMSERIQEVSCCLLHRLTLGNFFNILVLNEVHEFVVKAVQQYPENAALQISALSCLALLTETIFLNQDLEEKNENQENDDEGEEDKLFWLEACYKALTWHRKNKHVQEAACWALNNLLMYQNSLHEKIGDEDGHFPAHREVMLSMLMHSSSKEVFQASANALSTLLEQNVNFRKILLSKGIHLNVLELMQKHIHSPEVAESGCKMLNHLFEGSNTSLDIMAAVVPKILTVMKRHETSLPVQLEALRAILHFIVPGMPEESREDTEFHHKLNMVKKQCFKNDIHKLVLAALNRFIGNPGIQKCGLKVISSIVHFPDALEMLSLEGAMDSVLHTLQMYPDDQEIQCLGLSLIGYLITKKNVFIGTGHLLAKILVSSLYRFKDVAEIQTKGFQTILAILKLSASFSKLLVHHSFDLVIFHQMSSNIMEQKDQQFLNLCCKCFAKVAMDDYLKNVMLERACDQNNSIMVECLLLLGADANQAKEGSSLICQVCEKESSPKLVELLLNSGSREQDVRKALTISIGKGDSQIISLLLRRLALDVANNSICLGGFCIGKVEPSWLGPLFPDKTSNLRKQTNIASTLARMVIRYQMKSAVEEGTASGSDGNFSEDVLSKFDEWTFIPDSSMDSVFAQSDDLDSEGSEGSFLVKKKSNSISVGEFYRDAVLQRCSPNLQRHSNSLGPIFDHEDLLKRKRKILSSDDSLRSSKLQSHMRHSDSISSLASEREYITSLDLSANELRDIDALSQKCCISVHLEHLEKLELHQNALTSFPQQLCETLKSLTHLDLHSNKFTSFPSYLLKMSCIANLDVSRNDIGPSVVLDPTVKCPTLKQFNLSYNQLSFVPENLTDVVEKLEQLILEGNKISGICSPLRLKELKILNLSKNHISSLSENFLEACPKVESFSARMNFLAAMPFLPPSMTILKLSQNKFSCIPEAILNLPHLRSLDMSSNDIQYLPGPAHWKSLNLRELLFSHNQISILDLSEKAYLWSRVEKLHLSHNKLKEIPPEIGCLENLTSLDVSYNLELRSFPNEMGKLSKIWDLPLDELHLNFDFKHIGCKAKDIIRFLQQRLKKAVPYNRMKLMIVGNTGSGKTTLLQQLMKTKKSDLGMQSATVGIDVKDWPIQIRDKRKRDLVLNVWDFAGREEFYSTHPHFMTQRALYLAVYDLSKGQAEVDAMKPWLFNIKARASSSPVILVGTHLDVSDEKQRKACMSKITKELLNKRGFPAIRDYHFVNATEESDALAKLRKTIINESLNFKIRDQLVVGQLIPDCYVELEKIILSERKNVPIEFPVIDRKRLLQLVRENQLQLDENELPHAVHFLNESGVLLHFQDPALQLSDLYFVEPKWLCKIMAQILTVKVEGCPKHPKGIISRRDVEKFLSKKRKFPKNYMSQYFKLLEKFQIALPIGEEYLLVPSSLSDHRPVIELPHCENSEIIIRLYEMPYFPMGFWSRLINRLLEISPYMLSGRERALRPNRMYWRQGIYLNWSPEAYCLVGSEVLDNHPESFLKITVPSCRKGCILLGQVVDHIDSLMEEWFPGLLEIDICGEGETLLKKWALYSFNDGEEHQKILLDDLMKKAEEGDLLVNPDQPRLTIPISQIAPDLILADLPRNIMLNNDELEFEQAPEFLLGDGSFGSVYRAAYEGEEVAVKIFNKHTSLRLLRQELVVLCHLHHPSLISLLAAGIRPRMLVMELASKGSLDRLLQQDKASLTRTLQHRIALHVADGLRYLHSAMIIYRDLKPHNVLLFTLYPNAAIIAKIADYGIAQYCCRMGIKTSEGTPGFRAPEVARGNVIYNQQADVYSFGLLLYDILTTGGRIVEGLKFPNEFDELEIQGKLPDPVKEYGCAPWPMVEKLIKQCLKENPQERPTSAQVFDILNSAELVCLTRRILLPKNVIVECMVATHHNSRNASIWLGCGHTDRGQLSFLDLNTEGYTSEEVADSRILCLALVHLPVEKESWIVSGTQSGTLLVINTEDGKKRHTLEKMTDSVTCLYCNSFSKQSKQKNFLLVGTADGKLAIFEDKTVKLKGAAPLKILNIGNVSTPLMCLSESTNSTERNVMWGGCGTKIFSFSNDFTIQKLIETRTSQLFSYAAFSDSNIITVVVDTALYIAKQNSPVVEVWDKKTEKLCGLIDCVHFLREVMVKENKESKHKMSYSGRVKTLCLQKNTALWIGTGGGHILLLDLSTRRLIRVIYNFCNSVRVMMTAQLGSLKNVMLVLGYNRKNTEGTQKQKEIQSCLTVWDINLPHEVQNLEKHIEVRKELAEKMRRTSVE
# [8] = target: Ephrin type-A receptor 2 (Homo sapiens) (UniProt P29317); experiment: Inhibition of human EPHA2 at 18.6 nM by HotSpot assay relative to control
# Ephrin type-A receptor 2 (Homo sapiens), sequence (P29317 whole entry): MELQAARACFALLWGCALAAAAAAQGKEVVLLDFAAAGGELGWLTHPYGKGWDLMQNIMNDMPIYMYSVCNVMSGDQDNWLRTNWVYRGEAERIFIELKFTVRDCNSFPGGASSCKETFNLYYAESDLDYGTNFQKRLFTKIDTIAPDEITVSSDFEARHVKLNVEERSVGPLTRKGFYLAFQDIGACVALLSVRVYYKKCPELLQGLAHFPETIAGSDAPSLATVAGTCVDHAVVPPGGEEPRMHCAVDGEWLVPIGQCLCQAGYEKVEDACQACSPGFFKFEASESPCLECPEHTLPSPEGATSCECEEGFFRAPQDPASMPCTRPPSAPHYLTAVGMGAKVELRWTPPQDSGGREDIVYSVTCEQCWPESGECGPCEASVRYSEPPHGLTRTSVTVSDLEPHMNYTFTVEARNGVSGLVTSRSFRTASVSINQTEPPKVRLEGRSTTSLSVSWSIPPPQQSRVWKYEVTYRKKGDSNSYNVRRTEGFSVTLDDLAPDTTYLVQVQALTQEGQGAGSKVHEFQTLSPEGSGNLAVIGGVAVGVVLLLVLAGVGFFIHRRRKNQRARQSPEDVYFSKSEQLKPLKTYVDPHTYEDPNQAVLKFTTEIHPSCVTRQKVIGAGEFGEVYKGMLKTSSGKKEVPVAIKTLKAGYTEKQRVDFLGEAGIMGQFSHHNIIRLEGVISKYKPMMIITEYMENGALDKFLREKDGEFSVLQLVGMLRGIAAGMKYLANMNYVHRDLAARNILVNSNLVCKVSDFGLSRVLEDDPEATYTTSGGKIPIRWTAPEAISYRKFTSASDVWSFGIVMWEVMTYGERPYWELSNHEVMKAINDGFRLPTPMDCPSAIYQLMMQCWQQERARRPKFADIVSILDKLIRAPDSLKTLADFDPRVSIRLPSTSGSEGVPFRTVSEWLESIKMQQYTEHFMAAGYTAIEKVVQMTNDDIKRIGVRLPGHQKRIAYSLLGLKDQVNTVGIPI
# [9] = target: Protein kinase C gamma type (Homo sapiens) (UniProt P05129); experiment: Inhibition of human PKCg at 18.6 nM by HotSpot assay relative to control
# Aurora kinase B (Homo sapiens), sequence (Q96GD4 whole entry): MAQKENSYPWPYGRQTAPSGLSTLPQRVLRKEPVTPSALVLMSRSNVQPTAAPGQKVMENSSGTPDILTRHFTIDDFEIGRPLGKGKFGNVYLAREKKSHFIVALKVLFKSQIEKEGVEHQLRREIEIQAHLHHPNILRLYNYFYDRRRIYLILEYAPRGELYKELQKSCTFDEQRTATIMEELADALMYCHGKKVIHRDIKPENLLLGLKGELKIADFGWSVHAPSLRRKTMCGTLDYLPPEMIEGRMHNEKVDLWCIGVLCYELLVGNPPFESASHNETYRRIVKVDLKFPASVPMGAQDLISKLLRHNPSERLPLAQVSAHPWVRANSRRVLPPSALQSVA
Structure (SMILES),inhibition [1],inhibition [2],inhibition [3],inhibition [4],inhibition [5],inhibition [6],inhibition [7],inhibition [8],inhibition [9]
C[C@@]1(C(=O)Nc2ccc(F)nc2)CCCN1c1nc(Nc2cc(C3CC3)n[nH]2)c2cccn2n1,-0.68%,-0.02%,-0.86%,5.01%,–,–,–,–,–
C[C@]1(O)C[C@@H](c2nc(-c3ccc4ccc(-c5ccccc5)nc4c3)c3c(N)nccn32)C1,–,–,–,–,-2.2%,0.1%,-3.07%,2.9%,-8%
